Test results published in ChEMBL document CHEMBL3627643, “Synthesis of stereochemically diverse cyclic analogs of tubulysins” (Bioorg Med Chem, 2015).

target: Tubulin (Sus scrofa) (UniProt P02554+P02550); test: Inhibition of pig tubulin polymerization at 5 uM incubated for 20 mins at 37 degC by fluorescence based tubulin polymerization inhibition assay; type: protein assay
Sequence (P02550 whole entry, looked up): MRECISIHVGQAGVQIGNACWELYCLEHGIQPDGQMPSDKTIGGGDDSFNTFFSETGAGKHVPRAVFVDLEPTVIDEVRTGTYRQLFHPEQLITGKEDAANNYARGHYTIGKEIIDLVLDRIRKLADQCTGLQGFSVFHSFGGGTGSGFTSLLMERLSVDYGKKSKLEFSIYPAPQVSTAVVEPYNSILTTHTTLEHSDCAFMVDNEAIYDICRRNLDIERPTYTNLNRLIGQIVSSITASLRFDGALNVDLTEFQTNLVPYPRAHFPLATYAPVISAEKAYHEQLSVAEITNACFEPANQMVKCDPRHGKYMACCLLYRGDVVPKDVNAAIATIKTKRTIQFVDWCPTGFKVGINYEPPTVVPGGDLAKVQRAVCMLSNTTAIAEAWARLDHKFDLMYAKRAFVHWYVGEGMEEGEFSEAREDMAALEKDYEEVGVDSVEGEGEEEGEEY
Sequence (P02554 whole entry, looked up): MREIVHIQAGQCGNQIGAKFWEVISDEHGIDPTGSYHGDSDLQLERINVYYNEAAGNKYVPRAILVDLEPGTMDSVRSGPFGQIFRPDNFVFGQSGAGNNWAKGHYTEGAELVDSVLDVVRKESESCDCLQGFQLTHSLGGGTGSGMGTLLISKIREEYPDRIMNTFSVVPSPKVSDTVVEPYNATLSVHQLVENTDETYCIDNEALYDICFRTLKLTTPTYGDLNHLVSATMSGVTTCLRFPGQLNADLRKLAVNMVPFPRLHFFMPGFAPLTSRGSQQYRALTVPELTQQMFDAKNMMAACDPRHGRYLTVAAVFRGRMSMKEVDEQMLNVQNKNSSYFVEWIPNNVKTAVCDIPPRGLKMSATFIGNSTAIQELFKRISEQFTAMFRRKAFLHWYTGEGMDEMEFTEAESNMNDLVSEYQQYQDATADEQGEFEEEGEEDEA

Row | Compound | inhibition [%]
1 | CC[C@H](C)[C@H](NC(=O)[C@H]1CCCCN1C)C(=O)N(C)[C@H]1CCO[C@@H](c2nc(C(=O)NCCN3CCOCC3)cs2)C1 | 7.46
2 | CC[C@@H](C)[C@H](NC(=O)[C@H]1CCCCN1C)C(=O)N(COC(=O)CC(C)C)[C@H](C[C@@H](OC(C)=O)c1nc(C(=O)N[C@@H](Cc2ccc(O)cc2)C[C@H](C)C(=O)O)cs1)C(C)C | 72.6
3 | CC[C@H](C)[C@H](NC(=O)[C@H]1CCCCN1C)C(=O)N[C@H]1CCO[C@H](c2nc(C(=O)NC(C)C)cs2)C1 | 8.73
4 | CC[C@H](C)[C@H](NC(=O)[C@H]1CCCCN1C)C(=O)N(C)[C@H]1CCO[C@@H](c2nc(C(=O)NCCOC)cs2)C1 | 10.6
5 | CC[C@H](C)[C@H](NC(=O)[C@H]1CCCCN1C)C(=O)N[C@@H]1CCO[C@@H](c2nc(C(=O)NC(C)C)cs2)C1 | 3.9
6 | CC[C@H](C)[C@H](NC(=O)[C@H]1CCCCN1C)C(=O)N(C)[C@H]1CCO[C@@H](c2nc(C(=O)NCCc3ccccn3)cs2)C1 | 20.2
7 | CC[C@H](C)[C@H](NC(=O)[C@H]1CCCCN1C)C(=O)N[C@@H]1CCO[C@H](c2nc(C(=O)NC(C)C)cs2)C1 | 1.45
8 | CC[C@]1(O)C[C@@H]2CN(CCc3c([nH]c4ccccc34)[C@@](C(=O)OC)(c3cc4c(cc3OC)N(C)[C@H]3[C@@](O)(C(=O)OC)[C@H](OC(C)=O)[C@]5(CC)C=CCN6CC[C@]43[C@@H]65)C2)C1 | 73.9
9 | CC[C@H](C)[C@@H](C(=O)N[C@H]1CCO[C@@H](c2nc(C(=O)NC(C)C)cs2)C1)N(C)C | 16.9
10 | CC[C@H](C)[C@H](N)C(=O)N[C@H]1CCO[C@@H](c2nc(C(=O)NC(C)C)cs2)C1 | 10.6
11 | CC[C@H](C)[C@@H](C(=O)N[C@H]1CCO[C@@H](c2nc(C(=O)NCCc3ccccc3)cs2)C1)N(C)C | 15.8
12 | CC[C@H](C)[C@H](NC(=O)CN(C)C)C(=O)N[C@H]1CCO[C@@H](c2nc(C(=O)NC(C)C)cs2)C1 | 12.9
13 | CC[C@H](C)[C@H](N)C(=O)N[C@H]1CCO[C@@H](c2nc(C(=O)NCCc3ccccc3)cs2)C1 | 8.52
14 | CC[C@H](C)[C@H](NC(=O)[C@H]1CCCCN1C)C(=O)N(C)[C@H]1CCO[C@@H](c2nc(C(=O)NC(C)C)cs2)C1 | 15.5

Other lines, results leading:

Row | inhibition [%] | Compound
15 | 3.76 | CC[C@H](C)[C@H](NC(=O)[C@H]1CCCCN1C)C(=O)N[C@@H]1CCO[C@H](c2nc(C(=O)NCCc3ccccc3)cs2)C1
16 | 5.61 | CC[C@H](C)[C@H](NC(=O)[C@H]1CCCCN1C)C(=O)N[C@H]1CCO[C@H](c2nc(C(=O)NCCc3ccccc3)cs2)C1
17 | 10.2 | CC[C@H](C)[C@H](NC(=O)[C@H]1CCCCN1C)C(=O)N(C)[C@H]1CCO[C@@H](c2nc(C(=O)NCc3ccccc3)cs2)C1
18 | 19.9 | CC[C@H](C)[C@H](NC(=O)CN(C)C)C(=O)N[C@H]1CCO[C@@H](c2nc(C(=O)NCCc3ccccc3)cs2)C1
19 | 1.62 | CC[C@H](C)[C@H](NC(=O)[C@H]1CCCCN1C)C(=O)N[C@H]1CCO[C@@H](c2nc(C(=O)NCCc3ccccc3)cs2)C1
20 | 2.23 | CC[C@H](C)[C@H](NC(=O)[C@H]1CCCCN1C)C(=O)N[C@@H]1CCO[C@@H](c2nc(C(=O)NCCc3ccccc3)cs2)C1
21 | 5.87 | CC[C@H](C)[C@H](NC(=O)[C@H]1CCCCN1C)C(=O)N(C)[C@H]1CCO[C@@H](c2nc(C(=O)NCCc3ccccc3)cs2)C1
22 | 5.35 | CC[C@H](C)[C@H](NC(=O)[C@H]1CCCCN1C)C(=O)N[C@H]1CCO[C@@H](c2nc(C(=O)NC(C)C)cs2)C1
